The test system of this test is T1, primary mouse cortical neurons.
T1 construct: primary cortical neurons, DIV 10
Nature of the test: cells. Further details: Protection from NMDA-induced (30 uM, 10 min) neuronal death; Hoechst nuclear morphology by automated microscopy. The conditions noted are these: Cortical neurone, 20 h, read-out: % inhibition, inhibition of NMDA-induced cell death (protection score), 30 min pre-treatment. The essentials: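 On DIV 10, primary mouse cortical neurons were given compound at 10 μM for 30 min at 37 °C, then 30 μM NMDA for 10 min, washed, and kept 20 h with compound. Dead cells were scored by nuclear morphology, and % protection was derived from survival relative to vehicle + NMDA and untreated controls.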

SMILES strings stand for the structures. Where a name gives a salt, the structure may show the parent alone.

Turning to `COc1ccc([C@@H]2CC(=O)c3c(O)cc(O[C@@H]4O[C@H](CO)[C@@H](O)[C@H](O)[C@H]4O[C@@H]4O[C@@H](C)[C@H](O)[C@@H](O)[C@H]4O)cc3O2)cc1O` [Neohesperidin], the inhibition at 10 µM was 4.46%. The same measure for `Cc1ccc(O)c([C@H](CCN(C(C)C)C(C)C)c2ccccc2)c1` [Tolterodine tartrate (Detrol LA)]: -2.31%; for `CC(C)[C@]12O[C@H]1[C@@H]1O[C@]13[C@]1(O[C@H]1C[C@H]1C4=C(CC[C@@]13C)C(=O)OC4)[C@@H]2O` [Triptolide]: -1.79%; for `CC1(C)O[C@H]2CC(=O)OC[C@]23[C@H]2CC[C@@]4(C)[C@H](c5ccoc5)OC(=O)[C@H]5O[C@]54[C@]2(C)C(=O)C[C@@H]13` [Limonin]: -3.17%. The value for `COCCOC(=O)C1=C(C)NC(C)=C(C(=O)OC/C=C/c2ccccc2)C1c1cccc([N+](=O)[O-])c1` (centres unmarked) [Cilnidipine] was -16%.

Take `COc1ccc(Cl)cc1C(=O)NCCc1ccc(S(=O)(=O)NC(=O)NC2CCCCC2)cc1` [Glyburide (Diabeta)]: the inhibition at 10 µM turned out to be 0.906%. Consider `Nc1cccc2c1CN(C1CCC(=O)NC1=O)C2=O` (centres unmarked) [Lenalidomide], for which the inhibition at 10 µM was -2.36%. The same measure for `Oc1ncnc2[nH]ncc12` [Allopurinol (Zyloprim)]: 19.8%; for `Cc1ccc(C)c(OCCCC(C)(C)C(=O)O)c1` [Gemfibrozil (Lopid)]: 2.6%; for `C[C@]12CC[C@@H]3c4ccc(O)cc4CC[C@H]3[C@@H]1CC[C@@H]2O` [Estradiol]: 4.78%. The same measure for `C[C@]12CCC(=O)C=C1[C@@H]1C[C@@H]1[C@H]1[C@@H]3[C@@H]4C[C@@H]4[C@@]4(CCC(=O)O4)[C@@]3(C)CC[C@@H]12` [Drospirenone]: -0.385%. For the molecule `O=C1CCC[C@@H]2[C@H]3CCC[N@+]4([O-])CCC[C@@H](CN12)[C@@H]34` [Oxymatrine (Matrine N-oxide)], the inhibition at 10 µM was -1.44%. `COc1ccc(C(C)=O)c(O)c1` [Paeonol (Peonol)]: the inhibition at 10 µM is -2.06%. The same measure for `CC[C@H]1OC(=O)[C@H](C)[C@@H](O[C@H]2C[C@@](C)(OC)[C@@H](O)[C@H](C)O2)[C@H](C)[C@@H](O[C@@H]2O[C@H](C)C[C@H](N(C)C)[C@H]2O)[C@](C)(OC)C[C@@H](C)C(=O)[C@H](C)[C@@H](O)[C@]1(C)O` [Clarithromycin (Biaxin, Klacid)]: -1.54%. The value for `CCNC(=O)CCC/C=C\C[C@@H]1[C@@H](/C=C/[C@@H](O)CCc2ccccc2)[C@H](O)C[C@@H]1O` [Bimatoprost] was 9.97%.

Consider `CO[C@@H]1[C@@H](OC(N)=O)[C@@H](O)[C@H](Oc2ccc3c(O)c(NC(=O)c4ccc(O)c(CC=C(C)C)c4)c(=O)oc3c2C)OC1(C)C` [Novobiocin sodium (Albamycin)], for which the inhibition at 10 µM was -0.631%. As to `C[C@@H](O[C@H]1OCCN(Cc2n[nH]c(=O)[nH]2)[C@H]1c1ccc(F)cc1)c1cc(C(F)(F)F)cc(C(F)(F)F)c1` [Aprepitant (MK-0869)], the inhibition at 10 µM turned out to be 17.6%.

With `COc1cc([C@H]2Oc3cc([C@H]4Oc5cc(O)cc(O)c5C(=O)[C@@H]4O)ccc3O[C@@H]2CO)ccc1O` [Silibinin (Silybin)], the inhibition at 10 µM was determined as 8.03%. With `CN(C)CCc1ccc(O)cc1` [Hordenine], the inhibition at 10 µM was -0.889%. The same measure for `OC[C@H]1O[C@@H](OCCc2ccc(O)cc2)[C@H](O)[C@@H](O)[C@@H]1O` [Salidroside (Rhodioloside)]: 11.2%; for `O=c1c(O)c(-c2ccc(O)cc2O)oc2cc(O)cc(O)c12` [Morin hydrate (Aurantica)]: -2.71%. The value for `c1ccc2c(CC3=NCCN3)cccc2c1` [Naphazoline hydrochloride (Naphcon)] was -0.842%. Consider `CN1CC(=O)N2[C@H](c3ccc4c(c3)OCO4)c3[nH]c4ccccc4c3C[C@@H]2C1=O` [Tadalafil (Cialis)], for which the inhibition at 10 µM was determined as 0.202%. The same measure for `C[C@H]1COc2c(N3CCN(C)CC3)c(F)cc3c(=O)c(C(=O)O)cn1c23` [Levofloxacin (Levaquin)]: -4.92%; for `O=C(CCCN1CCC(O)(c2ccc(Cl)cc2)CC1)c1ccc(F)cc1` [Haloperidol (Haldol)]: 65%.

With `CC(=O)NC[C@H]1CN(c2ccc(N3CCOCC3)c(F)c2)C(=O)O1` [Linezolid (Zyvox)], the inhibition at 10 µM was 37%. In the case of `C[C@]12CC[C@@H]3c4ccc(O)cc4C[C@@H](CCCCCCCCC[S+]([O-])CCCC(F)(F)C(F)(F)F)[C@H]3[C@@H]1CC[C@@H]2O` (some centres unmarked) [Fulvestrant (Faslodex)], the inhibition at 10 µM was -2.64%. The same measure for `CNC[C@H](O)c1ccc(O)c(O)c1` [Epinephrine bitartrate (Adrenalinium)]: -0.43%.

`COc1ccc(-c2coc3cc(O)cc(O)c3c2=O)cc1` [Biochanin A (4-Methylgenistein)]: the inhibition at 10 µM amounted to 3%. Regarding `COc1ccc(-c2cc(=O)c3c(O)cc(O[C@@H]4O[C@H](CO[C@@H]5O[C@@H](C)[C@H](O)[C@@H](O)[C@H]5O)[C@@H](O)[C@H](O)[C@H]4O)cc3o2)cc1O` [Diosmin], the inhibition at 10 µM is -0.0881%. Turning to `CC(C(=O)O)c1ccc(-c2ccccc2)c(F)c1` (centres unmarked) [Flurbiprofen (Ansaid)], the inhibition at 10 µM was 14%. The value for `Cc1ccnc2c1NC(=O)c1cccnc1N2C1CC1` [Nevirapine (Viramune)] was 9.64%; that for `C=C1C[C@@H]2[C@H](CC[C@]3(C)C(=O)CC[C@@H]23)[C@@]2(C)C=CC(=O)C=C12` [Exemestane] was -1.67%; that for `NC(=O)c1ncn([C@@H]2O[C@H](CO)[C@@H](O)[C@H]2O)n1` [Ribavirin (Copegus)] was 12.3%. In the case of `CC1(C)O[C@@H]2C[C@H]3[C@@H]4CCC5=CC(=O)C=C[C@]5(C)[C@H]4[C@@H](O)C[C@]3(C)[C@]2(C(=O)CO)O1` [Desonide], the inhibition at 10 µM was 9.64%. The same measure for `Nc1cc(C(Cl)=C(Cl)Cl)c(S(N)(=O)=O)cc1S(N)(=O)=O` [Clorsulon]: -1.66%; for `CN(C)[C@@H]1C(=O)C(C(N)=O)=C(O)[C@@]2(O)C(=O)C3=C(O)c4c(O)cccc4[C@@](C)(O)[C@H]3[C@H](O)[C@@H]12` [Oxytetracycline (Terramycin)]: 2.79%. The value for `NC(=O)Cc1cccc(C(=O)c2ccccc2)c1N` [Nepafenac] was -12.2%; that for `c1ccc([C@H]2CN3CCSC3=N2)cc1` [Levamisole Hydrochloride (Ergamisol)] was 19.8%. For the molecule `NC(=O)c1cnccn1` [Pyrazinamide (Pyrazinoic acid amide)], the inhibition at 10 µM is 15.2%.

Turning to `COc1cc2/c(=N/c3ccc(Br)cc3F)nc[nH]c2cc1OCC1CCN(C)CC1` [Vandetanib (Zactima)], the inhibition at 10 µM is -8.86%.

Regarding `O=c1[nH]cc(F)c(=O)[nH]1` [Adrucil (Fluorouracil)], the inhibition at 10 µM was -16.3%. The same measure for `Nc1ncnc2c1ncn2[C@@H]1O[C@H](CO)[C@@H](O)[C@@H]1O` [Vidarabine (Vira-A)]: 20.1%.

Turning to `CC(C)Oc1ccc2c(=O)c(-c3ccccc3)coc2c1` [Ipriflavone], the inhibition at 10 µM is -1.69%. The value for `CCCNC(C)C(=O)Nc1ccccc1C` (centres unmarked) [Prilocaine] was 7.71%.

As to `COC(=O)[C@@H]1CC2=CC(=O)CC[C@]2(C)[C@@]23O[C@@H]2C[C@@]2(C)[C@@H](CC[C@@]24CCC(=O)O4)[C@H]13` [Eplerenone], the inhibition at 10 µM stood at 6.59%. In the case of `C[C@H]([C@H](O)CCC(C)(C)O)[C@H]1CC[C@@]2(O)C3=CC(=O)[C@@H]4C[C@@H](O)[C@@H](O)C[C@]4(C)[C@H]3CC[C@]12C` [Ecdysone], the inhibition at 10 µM came to 0.187%. The same measure for `CN1[C@@H]2CC(OC(=O)[C@H](CO)c3ccccc3)C[C@H]1[C@@H]1O[C@@H]12` (some centres unmarked) [Scopolamine hydrobromide]: -0.0258%. The value for `Nc1nc2c(ncn2COCCO)c(=O)[nH]1` [Acyclovir (Aciclovir)] was -1.44%; that for `CN[C@@H](C)[C@H]1[C@H](O)C[C@@]2(C)[C@@H]3CC[C@H]4C(C)(C)[C@@H](NC)CC[C@@]45C[C@@]35CC[C@]12C` [Cyclovirobuxin D (Bebuxine)] was 17.2%. Consider `CC(NC(C)(C)C)C(=O)c1cccc(Cl)c1` (centres unmarked) [Amfebutamone (Bupropion)], for which the inhibition at 10 µM was 2.08%. As to `OCCN(CCO)c1nc(N2CCCCC2)c2nc(N(CCO)CCO)nc(N3CCCCC3)c2n1` [Dipyridamole (Persantine)], the inhibition at 10 µM was -3.58%.

As to `CCOC(=O)C1=C(COCCN)NC(C)=C(C(=O)OC)C1c1ccccc1Cl` (centres unmarked) [Amlodipine besylate (Norvasc)], the inhibition at 10 µM was -2.44%. Regarding `Cc1cc(O)c2c(c1)C(=O)c1cc(O)cc(O)c1C2=O` [Emodin], the inhibition at 10 µM is -4.08%. The value for `CO/N=C(\C(=O)N[C@@H]1C(=O)N2C(C(=O)OCOC(=O)C(C)(C)C)=C(/C=C\c3scnc3C)CS[C@H]12)c1csc(N)n1` [Cefditoren pivoxil] was 8.16%; that for `CC(C)c1nc(CN(C)C(=O)N[C@H](C(=O)N[C@@H](Cc2ccccc2)C[C@H](O)[C@H](Cc2ccccc2)NC(=O)OCc2cncs2)C(C)C)cs1` [Ritonavir] was -1.84%.

Regarding `C[C@@H]1C[C@H]2[C@@H]3CCC4=CC(=O)C=C[C@]4(C)[C@@]3(F)[C@@H](O)C[C@]2(C)[C@@]1(O)C(=O)CO` [Dexamethasone], the inhibition at 10 µM was -9.25%. The same measure for `COc1cc(C=O)ccc1O` [Vanillin]: -1.73%. The value for `CC[C@]1(O)C[C@H]2CN(CCc3c([nH]c4ccccc34)[C@@](C(=O)OC)(c3cc4c(cc3OC)N(C=O)[C@H]3[C@@](O)(C(=O)OC)[C@H](OC(C)=O)[C@]5(CC)C=CCN6CC[C@]43[C@@H]65)C2)C1` [Vincristine] was -7.5%.

Usually inhibition stands for the relative decrease from the control value, in per cent.
